Measurements reported in patent US5126326A (Bio-Mega, Inc., priority 1989, dated 1992).
Counter-ions that a name gives are not always drawn. *1 amine or outer side, *2 acyl side, *3 side chain or, on linkers, in order; H or OH if unused. Where a SMILES comes first, the peptide text is derived from it. [ ]: non-standard residue; d: D form. The star is where a group is joined. ACHPA = O=C(C[C@H](O)[C@H](CC1CCCCC1)N[*:1])[*:2]; Carboxymethyl = O=C(O)C*; X1 = O=C(C*)OCc1ccccc1; Boc = CC(C)(C)OC(=O)*

These molecules were tested against HIV protease (Human immunodeficiency virus type 1 group M subtype B, UniProt P03366) (assay: biochemical).
Protocol: Recombinant HIV Protease HPLC Assay:
The enzyme was stored as 10 μL aliquots at -70° C. The aliquots were diluted to 1/10th of the original concentration with buffer prior to use (enzyme working solution).
The substrate was made into 10 mM stock in DMSO and stored at -20° C. Prior to use, the stock was diluted with buffer to give a 400 μM solution substrate working solution.
Buffer: 2-(4-Morpholino)ethanesulfonic acid (50 mM), NaCl (25 mM) and EDTA (5 mM) was dissolved in distilled H2 O (90 mL) and the solution was adjusted to pH6 with concentrated aqueous NaOH. The latter solution was diluted to 100 mL with H2 O to give the buffer.
(2) The assay mixture was prepared by mixing 10 μL of the substrate working solution, 0.5 μL of the solution of the test compound in DMSO from step 1, and 10 μL of the enzyme working solution. (3) The assay mixture was incubated at 37° C. for 1 h. (4) The reaction was quenched by adding 100 μL of 2% aqueous TFA. […] Elution was monitored at 210 nm. (6) A control which was the assay mixture without the test compound, was subjected simultaneously to steps 3 to 5.
Inhibition Studies: Cleavage products and remaining parent substrate were quantified by either peak height or by integration of the appropriate HPLC peaks. Substrate conversion was calculated using the following relationship: [formula] Enzyme inhibition of the test compound was calculated as follows: [formula]
The percent inhibition of the enzyme was determined for a minimum of three different concentrations of the test compound. Thereafter, the IC50 was determined graphically by plotting the percent inhibition of the substrate against the concentration of the test compound.
Work on `CC(C)C[C@H](NC(=O)C[C@H](O)[C@H](CC1CCCCC1)NC(=O)[C@@H](NC(=O)[C@H](Cc1ccc(OCC(=O)O)cc1)NC(=O)OC(C)(C)C)C(C)C)C(=O)N[C@@H](Cc1ccccc1)C(N)=O` [Example 3, Boc-Tyr(O-AcOH)-Val-ACHPA-Leu-Phe-NH2] (Boc-Y(Carboxymethyl)V[ACHPA]LF-NH2) yielded an IC50 of 52 nM.
Work on `CC(C)C[C@H](NC(=O)C[C@H](O)[C@H](CC1CCCCC1)NC(=O)[C@@H](NC(=O)[C@@H](N)Cc1ccc(OCC(=O)O)cc1)C(C)C)C(=O)N[C@@H](Cc1ccccc1)C(N)=O` [Example 4, H-Tyr(O-AcOH)-Val-ACHPA-Leu-Phe-NH2.HCl] (H-Y(Carboxymethyl)V[ACHPA]LF-NH2) yielded an IC50 of 10 nM.
With `CC(C)C[C@H](NC(=O)C[C@H](O)[C@H](CC1CCCCC1)NC(=O)[C@H](Cc1ccccc1)NC(=O)[C@H](Cc1ccc(OCC(=O)O)cc1)NC(=O)OC(C)(C)C)C(=O)N[C@@H](Cc1ccccc1)C(N)=O` [Example 5, Boc-Tyr(O-AcOH)-Phe-ACHPA-Leu-Phe-NH2] (Boc-Y(Carboxymethyl)F[ACHPA]LF-NH2) the IC50 was 1000 nM.
For `CC(C)C[C@H](NC(=O)C[C@H](O)[C@H](CC1CCCCC1)NC(=O)[C@@H](NC(=O)[C@@H](N)Cc1ccc(OCC(=O)OCc2ccccc2)cc1)C(C)C)C(=O)N[C@@H](Cc1ccccc1)C(N)=O` [Example 2, H-Tyr(O-AcOBzl)-Val-ACHPA-Leu-Phe-NH2.HCl] (H-Y(X1)V[ACHPA]LF-NH2), the IC50 was 5 nM.
Work on `CC(C)C[C@H](NC(=O)C[C@H](O)[C@H](CC1CCCCC1)NC(=O)[C@@H](NC(=O)[C@H](Cc1ccc(OCC(=O)OCc2ccccc2)cc1)NC(=O)OC(C)(C)C)C(C)C)C(=O)N[C@@H](Cc1ccccc1)C(N)=O` [Example 1] yielded an IC50 of 70 nM.
